These results are taken from PMC9856672, “SGC-CAMKK2-1: A Chemical Probe for CAMKK2” (Cells, 2023).

Assay [1] has as its target T1, RSK3(Kin.Dom.1-N-terminal) (Homo sapiens, UniProt Q15349).
T1 construct: RSK3(Kin.Dom.1-N-terminal); purchased Eurofins DiscoverX KINOMEscan
Nature of the assay: KINOMEscan 1 μM, RSK3(Kin.Dom.1-N-terminal). The conditions noted are these: 1000 nM; Entrez RPS6KA2; read-out: Percent Control. The format is binding. From the text:
(§1) Supplement cells-12-00287-s001.zip/File S2. KinomeScan data for the CAMKK2 probe and negative control.xlsx, sheet "SGC-CAMKK2-1" | column: Percent Control

The target in assay [2] is T2, ABL2 (Homo sapiens, UniProt P42684).
T2 construct: purchased Eurofins DiscoverX KINOMEscan
Nature of the assay: KINOMEscan 1 μM, ABL2. The conditions noted are these: 1000 nM; Entrez ABL2; read-out: Percent Control. The assay is classed as binding.
Source text: as §1

Assay [3] concerns the target T3, PIK4CB (Homo sapiens, UniProt Q9UBF8).
T3 construct: purchased Eurofins DiscoverX KINOMEscan
Kind of assay: DiscoverX KINOMEscan binding assay at 1 μM, PIK4CB. The conditions noted are these: PIK4CB (PI4KB); Compound Concentration 1000 nM; read-out: Percent Control.
Source text: as §1

The target of assay [4] is T4, RIPK2 (Homo sapiens, UniProt O43353).
T4 construct: purchased Eurofins DiscoverX KINOMEscan
Kind of assay: KINOMEscan 1 μM, RIPK2. The format is binding. The conditions noted are these: 1000 nM; Entrez RIPK2; read-out: Percent Control.
Source text: as §1

Assay [5] deals with T5, ERBB4 (Homo sapiens, UniProt Q15303).
T5 construct: purchased Eurofins DiscoverX KINOMEscan
Nature of the assay: KINOMEscan 1 μM, ERBB4. The format is binding. The conditions noted are these: 1000 nM; Entrez ERBB4; read-out: Percent Control.
Source text: as §1

Assay [6] deals with T6, INSR (Homo sapiens, UniProt P06213).
T6 construct: purchased Eurofins DiscoverX KINOMEscan
Nature of the assay: KINOMEscan 1 μM, INSR. The conditions noted are these: 1000 nM; Entrez INSR; read-out: Percent Control. The assay is classed as binding.
Source text: as §1

For assay [7], the target named is T7, FLT4 (Homo sapiens, UniProt P35916).
T7 construct: purchased Eurofins DiscoverX KINOMEscan
Kind of assay: KINOMEscan 1 μM, FLT4. The assay is classed as binding. The conditions noted are these: 1000 nM; Entrez FLT4; read-out: Percent Control.
Source text: as §1

Assay [8] has as its target T8, AKT1 (Homo sapiens, UniProt P31749).
T8 construct: purchased Eurofins DiscoverX KINOMEscan
Nature of the assay: KINOMEscan 1 μM, AKT1. The format is binding. The conditions noted are these: 1000 nM; Entrez AKT1; read-out: Percent Control.
Source text: as §1

For assay [9], the target named is T9, ABL1(Y253F)-phosphorylated (Homo sapiens, UniProt P00519, Y253F).
T9 construct: purchased Eurofins DiscoverX KINOMEscan
Nature of the assay: KINOMEscan 1 μM, ABL1(Y253F)-phosphorylated. The assay is classed as binding. The conditions noted are these: 1000 nM; Entrez ABL1; read-out: Percent Control.
Source text: as §1

Assay [10] deals with T10, TGFBR2 (Homo sapiens, UniProt P37173).
T10 construct: purchased Eurofins DiscoverX KINOMEscan
Nature of the assay: KINOMEscan 1 μM, TGFBR2. The format is binding. The conditions noted are these: 1000 nM; Entrez TGFBR2; read-out: Percent Control.
Source text: as §1

The target of assay [11] is T11, DLK (Homo sapiens, UniProt Q12852).
T11 construct: purchased Eurofins DiscoverX KINOMEscan
Nature of the assay: KINOMEscan 1 μM, DLK. The format is binding. The conditions noted are these: 1000 nM; Entrez MAP3K12; read-out: Percent Control.
Source text: as §1

In assay [12] the target is T12, MST1R (Homo sapiens, UniProt Q04912).
T12 construct: purchased Eurofins DiscoverX KINOMEscan
Kind of assay: KINOMEscan 1 μM, MST1R. The assay is classed as binding. The conditions noted are these: 1000 nM; Entrez MST1R; read-out: Percent Control.
Source text: as §1

The target of assay [13] is T13, NEK1 (Homo sapiens, UniProt Q96PY6).
T13 construct: purchased Eurofins DiscoverX KINOMEscan
Nature of the assay: KINOMEscan 1 μM, NEK1. The format is binding. The conditions noted are these: 1000 nM; Entrez NEK1; read-out: Percent Control.
Source text: as §1

Assay [14] has as its target T14, KIT(V559D) (Homo sapiens, UniProt P10721, V559D).
T14 construct: purchased Eurofins DiscoverX KINOMEscan
Kind of assay: KINOMEscan 1 μM, KIT(V559D). The conditions noted are these: 1000 nM; Entrez KIT; read-out: Percent Control. The assay is classed as binding.
Source text: as §1

Assay [15] concerns the target T15, MKNK2 (Homo sapiens, UniProt Q9HBH9).
T15 construct: purchased Eurofins DiscoverX KINOMEscan
Kind of assay: KINOMEscan 1 μM, MKNK2. The format is binding. The conditions noted are these: 1000 nM; Entrez MKNK2; read-out: Percent Control.
Source text: as §1

The target in assay [16] is T16, SLK (Homo sapiens, UniProt Q9H2G2).
T16 construct: purchased Eurofins DiscoverX KINOMEscan
Nature of the assay: KINOMEscan binding assay at 1 μM, SLK. The conditions noted are these: Compound Concentration 1000 nM; read-out: Percent Control. An excerpt: (§2) Supplement cells-12-00287-s001.zip/File S2. KinomeScan data for the CAMKK2 probe and negative control.xlsx, sheet "SGC-CAMKK2-1N" | column: Percent Control

The target in assay [17] is T17, PIK3CA(E545A) (Homo sapiens, UniProt P42336, E545A).
T17 construct: purchased Eurofins DiscoverX KINOMEscan
Nature of the assay: KINOMEscan at 1 μM, PIK3CA(E545A). The format is binding. The conditions noted are these: 1000 nM, read-out: Percent Control.
Source text: as §2

In assay [18] the target is T18, FGFR3 (Homo sapiens, UniProt P22607).
T18 construct: purchased Eurofins DiscoverX KINOMEscan
Nature of the assay: KINOMEscan at 1 μM, FGFR3. The conditions noted are these: 1000 nM, read-out: Percent Control. The assay is classed as binding.
Source text: as §2

Assay [19] has as its target T19, WNK1 (Homo sapiens, UniProt Q9H4A3).
T19 construct: purchased Eurofins DiscoverX KINOMEscan
Nature of the assay: KINOMEscan at 1 μM, WNK1. The format is binding. The conditions noted are these: 1000 nM, read-out: Percent Control.
Source text: as §2

Assay [20] addresses T20, KIT(V559D,T670I) (Homo sapiens, UniProt P10721, T670I/V559D).
T20 construct: purchased Eurofins DiscoverX KINOMEscan
Nature of the assay: KINOMEscan binding assay at 1 μM, KIT(V559D,T670I). The conditions noted are these: Compound Concentration 1000 nM; read-out: Percent Control.
Source text: as §2

The target in assay [21] is T2, ABL2. Kind of assay: KINOMEscan at 1 μM, ABL2. The assay is classed as binding. The conditions noted are these: 1000 nM, read-out: Percent Control.
Source text: as §2

Assay [22] deals with T21, ERK5 (Homo sapiens, UniProt Q13164).
T21 construct: purchased Eurofins DiscoverX KINOMEscan
Nature of the assay: KINOMEscan at 1 μM, ERK5. The format is binding. The conditions noted are these: 1000 nM, read-out: Percent Control.
Source text: as §2

Assay [23] addresses T22, GRK1 (Homo sapiens, UniProt Q15835).
T22 construct: purchased Eurofins DiscoverX KINOMEscan
Kind of assay: KINOMEscan at 1 μM, GRK1. The format is binding. The conditions noted are these: 1000 nM, read-out: Percent Control.
Source text: as §2

Assay [24] has as its target T23, PRKD1 (Homo sapiens, UniProt Q15139).
T23 construct: purchased Eurofins DiscoverX KINOMEscan
Nature of the assay: KINOMEscan binding assay at 1 μM, PRKD1. The conditions noted are these: Compound Concentration 1000 nM; read-out: Percent Control.
Source text: as §2

For assay [25], the target named is T24, PRKG2 (Homo sapiens, UniProt Q13237).
T24 construct: purchased Eurofins DiscoverX KINOMEscan
Nature of the assay: KINOMEscan at 1 μM, PRKG2. The format is binding. The conditions noted are these: 1000 nM, read-out: Percent Control.
Source text: as §2

The target in assay [26] is T25, AKT3 (Homo sapiens, UniProt Q9Y243).
T25 construct: purchased Eurofins DiscoverX KINOMEscan
Nature of the assay: KINOMEscan at 1 μM, AKT3. The assay is classed as binding. The conditions noted are these: 1000 nM, read-out: Percent Control.
Source text: as §2

Assay [27] has as its target T26, DAPK3 (Homo sapiens, UniProt O43293).
T26 construct: purchased Eurofins DiscoverX KINOMEscan
Nature of the assay: KINOMEscan at 1 μM, DAPK3. The conditions noted are these: 1000 nM, read-out: Percent Control. The format is binding.
Source text: as §2

For assay [28], the target named is T27, NLK (Homo sapiens, UniProt Q9UBE8).
T27 construct: purchased Eurofins DiscoverX KINOMEscan
Nature of the assay: KINOMEscan at 1 μM, NLK. The format is binding. The conditions noted are these: 1000 nM, read-out: Percent Control.
Source text: as §2

Assay [29] deals with T28, ROCK2 (Homo sapiens, UniProt O75116).
T28 construct: purchased Eurofins DiscoverX KINOMEscan
Kind of assay: KINOMEscan at 1 μM, ROCK2. The format is binding. The conditions noted are these: 1000 nM, read-out: Percent Control.
Source text: as §2

For assay [30], the target named is T29, EGFR(L747-S752del, P753S) (Homo sapiens, UniProt P00533, DEL747-752/P753S).
T29 construct: purchased Eurofins DiscoverX KINOMEscan
Nature of the assay: KINOMEscan binding assay at 1 μM, EGFR(L747-S752del, P753S). The conditions noted are these: Compound Concentration 1000 nM; read-out: Percent Control.
Source text: as §2

Assay [31] concerns the target T30, p38-gamma (Homo sapiens, UniProt P53778).
T30 construct: purchased Eurofins DiscoverX KINOMEscan
Kind of assay: KINOMEscan binding assay at 1 μM, p38-gamma. The conditions noted are these: Compound Concentration 1000 nM; read-out: Percent Control.
Source text: as §2

Assay [32] deals with T31, PAK1 (Homo sapiens, UniProt Q13153).
T31 construct: purchased Eurofins DiscoverX KINOMEscan
Kind of assay: KINOMEscan at 1 μM, PAK1. The format is binding. The conditions noted are these: 1000 nM, read-out: Percent Control.
Source text: as §2

For assay [33], the target named is T32, PDGFRB (Homo sapiens, UniProt P09619).
T32 construct: purchased Eurofins DiscoverX KINOMEscan
Nature of the assay: KINOMEscan at 1 μM, PDGFRB. The format is binding. The conditions noted are these: 1000 nM, read-out: Percent Control.
Source text: as §2

T2 sequence (P42684 whole entry): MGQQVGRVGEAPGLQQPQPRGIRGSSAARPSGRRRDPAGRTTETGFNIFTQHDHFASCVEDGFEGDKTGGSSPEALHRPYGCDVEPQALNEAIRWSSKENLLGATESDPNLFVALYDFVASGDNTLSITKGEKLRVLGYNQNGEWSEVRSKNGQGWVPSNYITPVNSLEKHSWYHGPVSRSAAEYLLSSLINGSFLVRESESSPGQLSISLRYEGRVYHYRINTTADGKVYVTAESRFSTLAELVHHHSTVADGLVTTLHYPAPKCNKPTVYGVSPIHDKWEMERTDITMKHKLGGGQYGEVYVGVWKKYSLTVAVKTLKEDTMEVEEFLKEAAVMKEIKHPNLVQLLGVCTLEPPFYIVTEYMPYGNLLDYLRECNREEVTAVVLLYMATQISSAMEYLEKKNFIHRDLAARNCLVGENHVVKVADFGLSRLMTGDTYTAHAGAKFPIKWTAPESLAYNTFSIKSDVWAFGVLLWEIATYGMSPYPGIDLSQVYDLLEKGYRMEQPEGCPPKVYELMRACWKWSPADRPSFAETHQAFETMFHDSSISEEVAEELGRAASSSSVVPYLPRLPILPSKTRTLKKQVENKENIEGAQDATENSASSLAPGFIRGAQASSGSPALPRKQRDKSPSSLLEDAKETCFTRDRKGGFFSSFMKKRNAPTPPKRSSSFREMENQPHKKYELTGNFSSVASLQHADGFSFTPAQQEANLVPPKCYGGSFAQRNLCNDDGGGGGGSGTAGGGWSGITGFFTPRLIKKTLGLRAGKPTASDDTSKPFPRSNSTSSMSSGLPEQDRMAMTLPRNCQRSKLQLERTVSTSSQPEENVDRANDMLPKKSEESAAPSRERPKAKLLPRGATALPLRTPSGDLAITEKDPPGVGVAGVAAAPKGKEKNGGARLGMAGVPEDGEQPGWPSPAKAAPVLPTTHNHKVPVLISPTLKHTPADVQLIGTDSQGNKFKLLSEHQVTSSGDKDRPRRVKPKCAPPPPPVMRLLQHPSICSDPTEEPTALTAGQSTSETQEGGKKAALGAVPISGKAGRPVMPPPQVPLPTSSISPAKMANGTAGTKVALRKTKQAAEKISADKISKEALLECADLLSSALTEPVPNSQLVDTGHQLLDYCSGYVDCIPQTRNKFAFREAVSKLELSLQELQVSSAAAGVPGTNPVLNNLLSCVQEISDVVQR
T15 sequence (Q9HBH9 whole entry): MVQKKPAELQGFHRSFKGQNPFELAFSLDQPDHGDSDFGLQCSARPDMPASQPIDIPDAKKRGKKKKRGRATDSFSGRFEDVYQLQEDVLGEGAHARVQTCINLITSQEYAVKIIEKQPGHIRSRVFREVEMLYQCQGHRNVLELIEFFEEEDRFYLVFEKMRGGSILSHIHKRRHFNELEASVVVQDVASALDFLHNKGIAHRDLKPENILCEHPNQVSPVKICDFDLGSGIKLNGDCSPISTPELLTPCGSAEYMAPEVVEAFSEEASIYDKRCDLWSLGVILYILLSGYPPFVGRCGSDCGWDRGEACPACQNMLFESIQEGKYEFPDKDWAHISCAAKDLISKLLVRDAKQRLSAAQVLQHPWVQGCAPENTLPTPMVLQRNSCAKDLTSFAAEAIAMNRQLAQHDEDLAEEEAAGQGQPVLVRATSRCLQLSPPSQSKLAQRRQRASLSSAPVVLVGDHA
T10 sequence (P37173 23-567): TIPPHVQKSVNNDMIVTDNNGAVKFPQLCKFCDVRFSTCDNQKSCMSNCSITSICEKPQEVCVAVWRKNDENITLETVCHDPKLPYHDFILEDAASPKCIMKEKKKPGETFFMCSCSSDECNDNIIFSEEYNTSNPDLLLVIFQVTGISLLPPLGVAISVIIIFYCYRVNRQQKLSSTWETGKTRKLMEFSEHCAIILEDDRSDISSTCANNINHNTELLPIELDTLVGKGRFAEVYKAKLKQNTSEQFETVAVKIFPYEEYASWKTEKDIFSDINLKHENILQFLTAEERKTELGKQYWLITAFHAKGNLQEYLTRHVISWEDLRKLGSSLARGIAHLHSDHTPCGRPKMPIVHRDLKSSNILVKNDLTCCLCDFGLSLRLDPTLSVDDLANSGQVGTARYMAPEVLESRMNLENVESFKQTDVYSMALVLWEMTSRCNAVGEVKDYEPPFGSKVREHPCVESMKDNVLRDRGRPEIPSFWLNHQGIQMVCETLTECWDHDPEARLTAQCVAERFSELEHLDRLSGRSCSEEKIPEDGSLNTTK
T27 sequence (Q9UBE8 whole entry): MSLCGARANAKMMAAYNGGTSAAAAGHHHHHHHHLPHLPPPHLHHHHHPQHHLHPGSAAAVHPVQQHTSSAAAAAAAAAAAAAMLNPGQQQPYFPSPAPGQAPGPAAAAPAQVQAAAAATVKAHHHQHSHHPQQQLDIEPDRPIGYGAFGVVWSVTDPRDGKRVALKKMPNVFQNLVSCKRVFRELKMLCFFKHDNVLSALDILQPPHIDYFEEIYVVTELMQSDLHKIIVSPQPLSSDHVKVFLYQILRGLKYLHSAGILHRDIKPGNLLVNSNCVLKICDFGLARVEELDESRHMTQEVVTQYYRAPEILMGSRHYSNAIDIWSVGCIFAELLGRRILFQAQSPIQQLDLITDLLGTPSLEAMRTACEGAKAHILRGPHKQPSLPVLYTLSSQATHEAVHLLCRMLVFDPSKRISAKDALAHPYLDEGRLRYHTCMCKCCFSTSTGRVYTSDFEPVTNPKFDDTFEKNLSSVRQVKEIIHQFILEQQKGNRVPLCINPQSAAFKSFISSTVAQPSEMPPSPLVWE
T20 sequence (P10721 26-976 V559D/T670I): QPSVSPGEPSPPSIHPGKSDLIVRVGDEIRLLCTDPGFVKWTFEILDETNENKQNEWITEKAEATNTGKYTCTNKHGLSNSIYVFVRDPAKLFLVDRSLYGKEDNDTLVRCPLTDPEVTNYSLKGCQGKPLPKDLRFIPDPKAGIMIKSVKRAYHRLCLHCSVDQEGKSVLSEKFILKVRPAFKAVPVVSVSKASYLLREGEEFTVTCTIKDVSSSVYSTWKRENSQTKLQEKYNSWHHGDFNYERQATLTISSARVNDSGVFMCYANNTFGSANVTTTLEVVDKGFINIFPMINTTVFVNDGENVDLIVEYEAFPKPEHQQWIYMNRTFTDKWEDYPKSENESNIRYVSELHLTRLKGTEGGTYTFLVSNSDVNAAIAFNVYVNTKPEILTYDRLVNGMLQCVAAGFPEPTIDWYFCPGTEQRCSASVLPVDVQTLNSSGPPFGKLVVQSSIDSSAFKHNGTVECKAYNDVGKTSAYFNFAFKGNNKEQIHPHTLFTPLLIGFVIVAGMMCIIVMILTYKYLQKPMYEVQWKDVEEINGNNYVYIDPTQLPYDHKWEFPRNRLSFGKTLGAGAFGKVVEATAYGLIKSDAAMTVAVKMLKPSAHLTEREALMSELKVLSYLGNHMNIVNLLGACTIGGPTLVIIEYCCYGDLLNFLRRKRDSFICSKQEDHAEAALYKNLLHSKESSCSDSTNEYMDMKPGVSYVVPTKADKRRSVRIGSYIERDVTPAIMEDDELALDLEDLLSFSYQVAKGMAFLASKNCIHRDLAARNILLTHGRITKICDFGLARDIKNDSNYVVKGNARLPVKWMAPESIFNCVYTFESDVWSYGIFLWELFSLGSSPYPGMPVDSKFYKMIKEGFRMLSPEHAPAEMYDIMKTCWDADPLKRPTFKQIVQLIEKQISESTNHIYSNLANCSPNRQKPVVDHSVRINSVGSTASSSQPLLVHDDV
T14 sequence (P10721 26-976 V559D): as the sequence (P10721 26-976 V559D/T670I) above, with I645T counted along it
T13 sequence (Q96PY6 whole entry): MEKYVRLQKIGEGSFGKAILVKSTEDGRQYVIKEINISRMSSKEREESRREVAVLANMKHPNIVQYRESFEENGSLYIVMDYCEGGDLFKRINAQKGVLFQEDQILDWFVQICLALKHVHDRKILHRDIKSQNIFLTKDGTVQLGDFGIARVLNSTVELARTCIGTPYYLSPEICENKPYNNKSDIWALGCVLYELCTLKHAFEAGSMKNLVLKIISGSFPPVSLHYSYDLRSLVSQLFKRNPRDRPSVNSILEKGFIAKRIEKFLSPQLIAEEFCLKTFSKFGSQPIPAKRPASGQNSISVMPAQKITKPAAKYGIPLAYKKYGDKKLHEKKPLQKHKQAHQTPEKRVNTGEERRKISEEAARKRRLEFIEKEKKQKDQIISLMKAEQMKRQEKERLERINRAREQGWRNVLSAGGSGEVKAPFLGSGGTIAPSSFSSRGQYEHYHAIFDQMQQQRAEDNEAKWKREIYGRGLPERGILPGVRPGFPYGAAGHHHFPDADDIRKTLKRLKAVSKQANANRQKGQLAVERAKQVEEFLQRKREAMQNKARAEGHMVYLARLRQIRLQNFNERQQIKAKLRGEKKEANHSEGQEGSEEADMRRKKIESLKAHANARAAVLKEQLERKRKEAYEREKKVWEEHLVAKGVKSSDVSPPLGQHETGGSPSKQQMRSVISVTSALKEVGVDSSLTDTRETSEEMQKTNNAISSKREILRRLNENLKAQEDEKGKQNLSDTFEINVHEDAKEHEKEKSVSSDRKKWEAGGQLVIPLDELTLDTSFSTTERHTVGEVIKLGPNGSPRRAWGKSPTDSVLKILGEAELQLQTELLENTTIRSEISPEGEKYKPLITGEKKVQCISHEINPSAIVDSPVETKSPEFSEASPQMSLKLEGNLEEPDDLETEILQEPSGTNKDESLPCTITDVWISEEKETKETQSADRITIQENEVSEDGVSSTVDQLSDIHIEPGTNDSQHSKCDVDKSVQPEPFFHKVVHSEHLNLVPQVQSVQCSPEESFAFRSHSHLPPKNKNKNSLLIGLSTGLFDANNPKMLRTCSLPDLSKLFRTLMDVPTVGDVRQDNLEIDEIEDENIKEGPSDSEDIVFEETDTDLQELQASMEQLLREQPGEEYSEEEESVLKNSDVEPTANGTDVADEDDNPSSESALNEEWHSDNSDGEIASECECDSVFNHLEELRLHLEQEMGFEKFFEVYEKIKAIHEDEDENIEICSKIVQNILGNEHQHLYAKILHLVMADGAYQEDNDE

Take `Cc1cccc(-c2cnc3occ(-c4ccc(C(=O)O)c(C5CCCC5)c4)c3c2)c1` [SGC-CAMKK2-1 (YL-36)]: the remaining binding at 1 µM in assay [1] amounted to 86%; in assay [2] it was 92%; in assay [3], 100%; in assay [4], 55%; in [5], 100%; in assay [6] it was 77%. Besides, the remaining binding at 1 µM in [7] came out at 96%; in [8] it was 100%; in [9], 73%; in assay [10], 91%; in assay [11], 100%; in assay [12], 86%. The values for the remaining binding at 1 µM in assay [13], in assay [14] and in assay [15] were 85%, 100% and 100%, respectively.
Regarding `O=C(O)c1ccc(-c2coc3ncc(-c4ccccc4)cc23)cc1Cl` [SGC-CAMKK2-1N (UNC-YL-83)], the remaining binding at 1 µM in assay [16] was 100%; in assay [17], 59%; in assay [18] it was 76%; in [19], 66%; in [20] it was 100%; in [21], 100%. Further, the remaining binding at 1 µM in assay [22] is 81%; in [23], 92%; in assay [24], 100%; in [25], 80%; in [26] it was 95%; in [27], 71%. For the same compound, the remaining binding at 1 µM in assay [28] worked out at 84%; in [29], 70%; in assay [30], 100%; in assay [31], 100%; in assay [32], 42%; in assay [33], 92%.
